Data reported in patent US20230017045A1, “PYRIDINE AND PYRIMIDINE CARBOXYLATE HERBICIDES AND METHODS OF USE THEREOF” (Dow AgroSciences LLC, priority 2017, published 2023).

Test system: test plant species
Test: Post-emergent herbicidal activity test (greenhouse, foliar spray, visual growth reduction)
Format: in vivo
Details: post-emergence, 336 h, ECHCG: barnyardgrass (Echinochloa crus-galli), 140 g ai/ha, 14 days after application, read-out: Visual Growth Reduction (%) 14 Days After Application, ECHCG
Experimental: Post-emergent Test: Seeds or nutlets of the desired test plant species were planted in Sun Gro Metro-Mix® 360 planting mixture, which typically has a pH of 6.0 to 6.8 and an organic matter content of about 30 percent, in plastic pots with a surface area of 64 square centimeters. In some aspects, to ensure good germination and healthy plants, a fungicide treatment and/or other chemical or physical treatment was applied. The plants were grown for 7-21 d in a greenhouse with an approximate 15 h photoperiod which was maintained at 23-29° C. during the day and 22-28° C. during the night. Nutrients and water were added on a regular basis and supplemental lighting was provided with overhead metal halide 1000-Watt lamps as necessary. Plants were used for testing when they reached the first or second true leaf stage. A weighed amount, determined by the highest rate to be tested, of each test compound was placed in a 25 mL glass vial and was dissolved in 4 mL of a 97:3 v/v mixture of acetone and DMSO to obtain concentrated stock solutions. […] The concentrated stock solutions obtained were diluted with 20 mL of an aqueous mixture containing acetone, water, isopropyl alcohol, DMSO, […] crop oil concentrate, and X-77 surfactant in a 48.5:39:10:1.5:1.0:0.02 v/v ratio to obtain spray solutions containing the application rate. Compound requirements are based upon a 12 mL application volume at a rate of 187 liters per hectare (L/ha). Formulated compounds were applied to the plant material with an overhead Mandel track sprayer equipped with […] nozzles calibrated to deliver 187 L/ha over an application area of 0.64 square meters at a spray height of 18 inches (43 cm) above the average plant canopy height. Control plants were sprayed in the same manner with the solvent blank. The treated plants and control plants were placed in a greenhouse as described above and watered by subirrigation to prevent wash-off of the test compounds. After 14 d, the condition of the test plants as compared with that of the nontreated and control plants was determined visually and scored on a scale of 0 to 100 percent where 0 corresponds to no injury and 100 corresponds to complete control. In the reporting of the results, Table A: Percent Growth Reduction Conversion Table was used.

SMILES | pest or weed control at 140 g/ha
COC(=O)c1nc(-c2ccc3c(c2)C(F)(F)OC(F)(F)O3)ccc1Cl [F203, Methyl 3-chloro-6-(2,2,4,4-tetrafluoro-4H-benzo[d][1,3]dioxin-6-yl) picolinate] | 0 to 29%
COC(=O)c1nc(-c2ccc(C(F)(F)F)cc2OC)c(F)cc1F [F377, Methyl 3,5-difluoro-6-(2-methoxy-4-(trifluoromethyl)phenyl)picolinate] | 60 to 74%

Same assay, conditions: post-emergence, 336 h, IPOHE: ivy-leaf morning glory (Ipomoea hederacea), 140 g ai/ha, 14 days after application, read-out: Visual Growth Reduction (%) 14 Days After Application, IPOHE

SMILES | pest or weed control at 140 g/ha
COC(=O)c1nc(-c2ccc3c(c2)C(F)(F)OC(F)(F)O3)ccc1Cl [F203, Methyl 3-chloro-6-(2,2,4,4-tetrafluoro-4H-benzo[d][1,3]dioxin-6-yl) picolinate] | 30 to 44%
COC(=O)c1nc(-c2ccc(C(F)(F)F)cc2OC)c(F)cc1F [F377, Methyl 3,5-difluoro-6-(2-methoxy-4-(trifluoromethyl)phenyl)picolinate] | 95 to 100%

Same assay, conditions: post-emergence, 336 h, KCHSC: kochia (Bassia scoparia), 140 g ai/ha, 14 days after application, read-out: Visual Growth Reduction (%) 14 Days After Application, KCHSC

SMILES | pest or weed control at 140 g/ha
COC(=O)c1nc(-c2ccc3c(c2)C(F)(F)OC(F)(F)O3)ccc1Cl [F203, Methyl 3-chloro-6-(2,2,4,4-tetrafluoro-4H-benzo[d][1,3]dioxin-6-yl) picolinate] | 0 to 29%
COC(=O)c1nc(-c2ccc(C(F)(F)F)cc2OC)c(F)cc1F [F377, Methyl 3,5-difluoro-6-(2-methoxy-4-(trifluoromethyl)phenyl)picolinate] | 60 to 74%

Same assay, conditions: post-emergence, 336 h, ORYSA: rice (Oryza sativa), 140 g ai/ha, 14 days after application, read-out: Visual Growth Reduction (%) 14 Days After Application, ORYSA

SMILES | pest or weed control at 140 g/ha
COC(=O)c1nc(-c2ccc3c(c2)C(F)(F)OC(F)(F)O3)ccc1Cl [F203, Methyl 3-chloro-6-(2,2,4,4-tetrafluoro-4H-benzo[d][1,3]dioxin-6-yl) picolinate] | 0 to 29%
COC(=O)c1nc(-c2ccc(C(F)(F)F)cc2OC)c(F)cc1F [F377, Methyl 3,5-difluoro-6-(2-methoxy-4-(trifluoromethyl)phenyl)picolinate] | 0 to 29%

Same assay, conditions: post-emergence, 336 h, SETFA: giant foxtail (Setaria faberi), 140 g ai/ha, 14 days after application, read-out: Visual Growth Reduction (%) 14 Days After Application, SETFA

SMILES | pest or weed control at 140 g/ha
COC(=O)c1nc(-c2ccc3c(c2)C(F)(F)OC(F)(F)O3)ccc1Cl [F203, Methyl 3-chloro-6-(2,2,4,4-tetrafluoro-4H-benzo[d][1,3]dioxin-6-yl) picolinate] | 0 to 29%
COC(=O)c1nc(-c2ccc(C(F)(F)F)cc2OC)c(F)cc1F [F377, Methyl 3,5-difluoro-6-(2-methoxy-4-(trifluoromethyl)phenyl)picolinate] | 75 to 84%

Same assay, conditions: post-emergence, 336 h, SORVU: grain sorghum (Sorghum vulgare), 140 g ai/ha, 14 days after application, read-out: Visual Growth Reduction (%) 14 Days After Application, SORVU

SMILES | pest or weed control at 140 g/ha
COC(=O)c1nc(-c2ccc3c(c2)C(F)(F)OC(F)(F)O3)ccc1Cl [F203, Methyl 3-chloro-6-(2,2,4,4-tetrafluoro-4H-benzo[d][1,3]dioxin-6-yl) picolinate] | 0 to 29%
COC(=O)c1nc(-c2ccc(C(F)(F)F)cc2OC)c(F)cc1F [F377, Methyl 3,5-difluoro-6-(2-methoxy-4-(trifluoromethyl)phenyl)picolinate] | 85 to 94%

Same assay, conditions: post-emergence, 336 h, STEME: common chickweed (Stellaria media), 140 g ai/ha, 14 days after application, read-out: Visual Growth Reduction (%) 14 Days After Application, STEME

SMILES | pest or weed control at 140 g/ha
COC(=O)c1nc(-c2ccc3c(c2)C(F)(F)OC(F)(F)O3)ccc1Cl [F203, Methyl 3-chloro-6-(2,2,4,4-tetrafluoro-4H-benzo[d][1,3]dioxin-6-yl) picolinate] | 0 to 29%
COC(=O)c1nc(-c2ccc(C(F)(F)F)cc2OC)c(F)cc1F [F377, Methyl 3,5-difluoro-6-(2-methoxy-4-(trifluoromethyl)phenyl)picolinate] | 0 to 29%

Same assay, conditions: post-emergence, 336 h, TRZAS: wheat, spring (Triticum aestivum), 140 g ai/ha, 14 days after application, read-out: Visual Growth Reduction (%) 14 Days After Application, TRZAS

SMILES | pest or weed control at 140 g/ha
COC(=O)c1nc(-c2ccc3c(c2)C(F)(F)OC(F)(F)O3)ccc1Cl [F203, Methyl 3-chloro-6-(2,2,4,4-tetrafluoro-4H-benzo[d][1,3]dioxin-6-yl) picolinate] | 0 to 29%
COC(=O)c1nc(-c2ccc(C(F)(F)F)cc2OC)c(F)cc1F [F377, Methyl 3,5-difluoro-6-(2-methoxy-4-(trifluoromethyl)phenyl)picolinate] | 0 to 29%

Same assay, conditions: post-emergence, 336 h, blackgrass (Alopecurus myosuroides), 14 Days After Application, 140 g ai/ha, read-out: Visual Growth Reduction (%) ALOMY

SMILES | pest or weed control at 140 g/ha
COC(=O)c1nc(-c2ccc3c(c2)C(F)(F)OC(F)(F)O3)ccc1Cl [F203, Methyl 3-chloro-6-(2,2,4,4-tetrafluoro-4H-benzo[d][1,3]dioxin-6-yl) picolinate] | 0 to 29%
COC(=O)c1nc(-c2ccc(C(F)(F)F)cc2OC)c(F)cc1F [F377, Methyl 3,5-difluoro-6-(2-methoxy-4-(trifluoromethyl)phenyl)picolinate] | 0 to 29%

Same assay, conditions: post-emergence, 336 h, canada thistle (Cirsium arvense), 14 Days After Application, 140 g ai/ha, read-out: Visual Growth Reduction (%) CIRAR

SMILES | pest or weed control at 140 g/ha
COC(=O)c1nc(-c2ccc3c(c2)C(F)(F)OC(F)(F)O3)ccc1Cl [F203, Methyl 3-chloro-6-(2,2,4,4-tetrafluoro-4H-benzo[d][1,3]dioxin-6-yl) picolinate] | 0 to 29%
COC(=O)c1nc(-c2ccc(C(F)(F)F)cc2OC)c(F)cc1F [F377, Methyl 3,5-difluoro-6-(2-methoxy-4-(trifluoromethyl)phenyl)picolinate] | 75 to 84%

Same assay, conditions: post-emergence, 336 h, crabgrass (Digitaria sanguinalis), 14 Days After Application, 140 g ai/ha, read-out: Visual Growth Reduction (%) DIGSA

SMILES | pest or weed control at 140 g/ha
COC(=O)c1nc(-c2ccc3c(c2)C(F)(F)OC(F)(F)O3)ccc1Cl [F203, Methyl 3-chloro-6-(2,2,4,4-tetrafluoro-4H-benzo[d][1,3]dioxin-6-yl) picolinate] | 0 to 29%
COC(=O)c1nc(-c2ccc(C(F)(F)F)cc2OC)c(F)cc1F [F377, Methyl 3,5-difluoro-6-(2-methoxy-4-(trifluoromethyl)phenyl)picolinate] | 60 to 74%

Same assay, conditions: post-emergence, 336 h, lambsquarters (Chenopodium album), 14 Days After Application, 140 g ai/ha, read-out: Visual Growth Reduction (%) CHEAL

SMILES | pest or weed control at 140 g/ha
COC(=O)c1nc(-c2ccc3c(c2)C(F)(F)OC(F)(F)O3)ccc1Cl [F203, Methyl 3-chloro-6-(2,2,4,4-tetrafluoro-4H-benzo[d][1,3]dioxin-6-yl) picolinate] | 0 to 29%
COC(=O)c1nc(-c2ccc(C(F)(F)F)cc2OC)c(F)cc1F [F377, Methyl 3,5-difluoro-6-(2-methoxy-4-(trifluoromethyl)phenyl)picolinate] | 85 to 94%

Same assay, conditions: post-emergence, 336 h, redroot pigweed (Amaranthus retroflexus), 14 Days After Application, 140 g ai/ha, read-out: Visual Growth Reduction (%) AMARE

SMILES | pest or weed control at 140 g/ha
COC(=O)c1nc(-c2ccc3c(c2)C(F)(F)OC(F)(F)O3)ccc1Cl [F203, Methyl 3-chloro-6-(2,2,4,4-tetrafluoro-4H-benzo[d][1,3]dioxin-6-yl) picolinate] | 0 to 29%
COC(=O)c1nc(-c2ccc(C(F)(F)F)cc2OC)c(F)cc1F [F377, Methyl 3,5-difluoro-6-(2-methoxy-4-(trifluoromethyl)phenyl)picolinate] | 95 to 100%

Same assay, conditions: post-emergence, 336 h, wild oat (Avena fatua), 14 Days After Application, 140 g ai/ha, read-out: Visual Growth Reduction (%) AVEFA

SMILES | pest or weed control at 140 g/ha
COC(=O)c1nc(-c2ccc3c(c2)C(F)(F)OC(F)(F)O3)ccc1Cl [F203, Methyl 3-chloro-6-(2,2,4,4-tetrafluoro-4H-benzo[d][1,3]dioxin-6-yl) picolinate] | 0 to 29%
COC(=O)c1nc(-c2ccc(C(F)(F)F)cc2OC)c(F)cc1F [F377, Methyl 3,5-difluoro-6-(2-methoxy-4-(trifluoromethyl)phenyl)picolinate] | 30 to 44%

Same assay, conditions: post-emergence, 336 h, yellow nutsedge (Cyperus esculentus), 14 Days After Application, 140 g ai/ha, read-out: Visual Growth Reduction (%) CYPES

SMILES | pest or weed control at 140 g/ha
COC(=O)c1nc(-c2ccc3c(c2)C(F)(F)OC(F)(F)O3)ccc1Cl [F203, Methyl 3-chloro-6-(2,2,4,4-tetrafluoro-4H-benzo[d][1,3]dioxin-6-yl) picolinate] | 0 to 29%
COC(=O)c1nc(-c2ccc(C(F)(F)F)cc2OC)c(F)cc1F [F377, Methyl 3,5-difluoro-6-(2-methoxy-4-(trifluoromethyl)phenyl)picolinate] | 60 to 74%
